What was measured:
Assay type in all cases: functional
Streptococcus mutans = experiment: Antibacterial activity against Streptococcus mutans ATCC25175 assessed as inhibition of bacterial growth by broth microdilution method
[1] = system: Staphylococcus epidermidis; experiment: Antibacterial activity against Staphylococcus epidermidis ATCC14990 assessed as inhibition of bacterial growth by broth microdilution method
Staphylococcus aureus = experiment: Antibacterial activity against Staphylococcus aureus ATCC12600 assessed as inhibition of bacterial growth by broth microdilution method
Moraxella catarrhalis = experiment: Antibacterial activity against Moraxella catarrhalis ATCC25238 assessed as inhibition of bacterial growth by broth microdilution method

Measured: MIC

CCCCCCCc1cc(O)c(CCCCCC)c(=O)o1 [PSEUDOPYRONINES B]
2.1 µg/mL: all assays above
